The results in this text go back to patent US20150175585A1, “FUSED QUINONIC COMPOUNDS” (CENTRO ATLANTICO DEL MEDICAMENTO S.A (CEAMED, S.A.), priority 2012, published 2015).

Where two headings read alike, the source gives them in different places.

Experiment [1] deals with K562 cells. Kind of experiment: K562-based MTT cell viability assay. Also on record: species or system human. As to conditions: 48 h, read-out: Activity (IC50, reduction of cell viability). As to the method: (§1) Cell viability was assayed by measuring the mitochondrial reduction of the tetrazolium salt 3-(4,5-methyltiazol-2yl)-2,5diphenyl-tetrazolium bromide] (MTT) (Applichen; A2231,0010) (Mosmann T. J Immunol Methods. 1983 16; 65(1-2):55-63; Chuan Y-C et al 2010. Oncogene. 29 (10), 1531-1542. Cells were seeded in 96-well plates in medium supplemented with 10% FBS (Lonza Cat. No: 14-502F), 2 mM L-Glut (Lonza Cat. No: BE17-605E) and 100 U/ml PEST (Lonza Cat. No: DE17-605E) at a cell density of 5000-20000 cells/well. Cells were seeded at a density according to their exponential growth phase. Vehicle (0.05% DMSO) or drug were added to culture medium at the indicated concentrations (10 to 0.01 microM) during 48 h. Then, MTT (0.3 mg/ml) was added to cells following by incubation for 2-4 h at 37° C. in the dark. The medium was then discarded and the formazan precipitate was solubilized by addition of 20% SDS (Sigma; L-5750) in 0.02N HCl (Panreac; 131020.1611) for 12-16 h. The optical density was measured at 595 nm with the iMark Microplate Reader (BioRad, USA). Data was expressed as percent growth above the level in controls and the results in figures were plotted as means±SEM of each test point from 3 replicates.
(§2) Statistical analysis. The concentration of drug that provokes 50% reduction of cell viability (IC50) was determined by using non-linear regression analysis and data were fitted to a log concentration vs normalized response curve in GraphPad software v5 (San Diego, Calif.).
On the technique in general: Tetrazolium assays rely on reduction of a dye to a coloured formazan, in cell work by metabolically active cells.

Experiment [2] relates to STAT5 transcription (pSPI-GLE1-luc) in HEK-GHR cells. Kind of experiment: HEK-GHR STAT5 transcription assay (luciferase reporter, rhGH stimulated). Format: cell-based, human. Conditions: compound 45 minutes before 50 nM rhGH, six hours, read-out: Activity (IC50, reduction of luciferase activity). From the text:
Plasmids: The full-length GHR was subcloned into pcDNA1/ampicillin (Invitrogen) as described previously (Ross R J, Esposito N, Shen X Y, et al., Mol Endocrinol 1997, 11:265-73). The pSPI-GLE1 (serine protease inhibitor 2.1 GAS-like element 1)-luc reporter construct was generated by subcloning the Stat5-binding element from serine protease inhibitor gene together with a minimal thymidine kinase promoter into the pGL2 plasmid (Promega), which contains the firefly luciferase cDNA (Wood T J, Sliva D, Lobie P E, et al. J Biol Chem 1995, 270:9448-53).
Cell culture: HEK-GHR cell line was maintained in Dulbecco's Modified Eagle Medium (DMEM)/F12 supplemented with 10% fetal bovine serum (FBS) and 50 U/ml penicillin/50 U/ml streptomycin. The cells were maintained in a humidified incubator with 5% CO2 at 37° C. Cell culture reagents were obtained from PAA laboratories. The HEK-GHR cell line is a stable clone generated and kindly donated by Prof. Richard Ross (Clinical Sciences, Northern General Hospital, Sheffield, UK). Briefly, HEK-GHR cell line was generated in HEK 293 cells (human kidney embryonal cell line) by transfection with the calcium phosphate procedure of the GHR plasmid with pcDNA3/Neo (Invitrogen). Selection was made using G418 (400 ug/ml, Sigma) (Maamra M, Finidori J, Von Laue S, et al., J Biol Chem 1999, 274(21):14791-8).
Luciferase reporter assay: Transcription assays were performed in HEK-GHR. The HEK-GHR cells were co-transfected with Stat5 luciferase (pSPI-GLE1-luc) reporter vector together with a plasmid constitutively expressing beta-galactosidase by using Metafectene Pro as described by the manufacturer (Biontex Laboratories GmbH, Munich, Germany). Following transfection, HEK-GHR cells were serum-starved for 20 h. Cells were then treated with vehicle (0.1% DMSO) or the indicated compound for 45 minutes prior to the addition of 50 nM recombinant human Growth Hormone (rhGH) (Norditropin, Novo Nordisk) to the medium. Six hours following rhGH addition, cells were harvested with Passive Lysis Buffer (Promega), and levels of luciferase were measured using Luciferase Assay System as described by the manufacturer (Promega). The Galacto-Light Plus System (Applied Biosystems) was used to measure beta-galactosidase activity.
Statistical analysis. The concentration of drug that provokes 50% reduction of luciferase activity (IC50) was determined by using non-linear regression analysis and data were fitted to a log concentration vs normalized response curve in GraphPad software v5 (San Diego, Calif.).

Experiment [3] relates to HEL cells. Kind of experiment: HEL-based MTT cell viability assay. Conditions: 48 h, read-out: Activity (IC50, reduction of cell viability). On the set-up: species or system human. As to the method:
as §1, §2

Experiment [4] deals with STAT5. The experiment can be described thus: STAT5 phosphorylation western blot assay. The experiment is classed as cell-based, human. Conditions: 10 microM, HEL or K562 cells (table does not say which). The protocol: (§3) The Human Erythroleukemia cell line HEL and the human Chronic Myeloid Leukemia cell line K562 were cultured in RPM I 1640 medium containing 10% fetal bovine serum (FBS) and 50 U/ml penicillin/50 U/ml streptomycin at 37° C. in a 5% CO2 humidified atmosphere to a density of 300.000 viable cells/mL in presence of WP1066 (positive control of phosphorylation inhibition) (Verstovsek et al., 2008) or CM-363 at concentrations of 1, 5 and 10 μM. Cell culture reagents were all obtained from BioWhittaker® (Lonza, Verniers, Belgium). Cell growth and viability was determined by propidium iodide (fluorescent dye) exclusion method using the Accuchip 4× Counting Kit and the ADAM automatic cell counter (Digital-Bio, NanoEntek, Ic., Washington St, Mass., USA).As a control of unspecific phosphorylation, some cells in each experiment were exposed to vehicle (negative control of phosphorylation inhibition) (0.1% DMSO).
(§4) For total protein extraction, cells were scraped with RIPA 1× lysis buffer (25 mM Tris-HCl pH 7.6, 150 mM NaCl, 1% NP-40, 1% sodium deoxycholate, 0.1% SDS, no. 89900, Thermo Scientific, Rockford, Ill., USA) supplemented with 1× protease and 1× phosphatase inhibitor cocktails (100× Halt™ Protease Inhibitor Cocktail, no. 87786 and 100× Halt Phosphatase Inhibitor Cocktail, no. 78420, both from Thermo Scientific, Rockford, Ill., USA). An aliquot of each extract was preserved for protein quantification by bicinchoninic acid assay (Pierce® BCA Protein Assay Kit, no. 23225, Thermo Scientific, Rockford, Ill., USA).
(§5) Proteins were solubilized in sample buffer containing 0.0625 M Tris-HCl, pH 6.8, 2.3% (wt/vol) SDS, 10% (vol/vol) glycerol, 5% (vol/vol) f3-mercaptoethanol, and 0.001% (wt/vol) bromophenol blue and boiled at 95° C. for 5 min. Equal amounts (50 μg) of each sample were electrophoresed on 8-10% sodium dodecyl sulfate-polyacrylamide gel electrophoresis (SDS-PAGE) and transferred to nitrocellulose membranes (iBlot® Gel Transfer Stacks, Nitrocellulose, no. IB4010-02, Invitrogen, Barcelona, Spain) as described previously (Fernandez, L, et al., Endocrinology, 13, 1815-1824, 1998; B. Guerra et al., J. Neurochem, 91, 99-109, 2004; B. Guerra et al., J. Appl. Physiol., 102, 1786-1792, 2007; B. Guerra et al., J. Appl. Physiol., 111, 715-725, 2011). The nitrocellulose membranes were then removed from the iBlot® Dry GelTransfer Device (no. IB1001EU, Invitrogen, Barcelona, Spain) and placed in a Ponceau S staining solution (0.5% Ponceau S and 1% glacial acetic acid in water) to verify equal loading of protein in the control and treated samples. After the membranes were stained for 5 min, they were rinsed for 2 min and examined. Equal loading of protein was verified, and the membranes were rinsed for an additional 10 min and immunoscreened. Membranes were blocked with 5% blotting grade blocker nonfat dry milk in Tris Buffered Saline with 0.05% Tween 20 (TBST; blotto-blocking buffer) for at least […]) at room temperature. They were washed thrice in TBS with 0.1% Tween 20 (TBST-0.1). Next, the membranes were incubated over night at 4° C. with the appropriate anti-phospho-antibodies (described below) all diluted (1:1000) in 1% bovine serum albumin (BSA)-1% blotto in TBST (BSA-blotto blocking buffer). […] Membranes were stripped of bound antibodies by incubation in stripping buffer (Restore™ Western Blot Stripping Buffer, no. 21059, Thermo Scientific, Rockford, Ill., USA) at room temperature for 30 min with agitation. Membranes were washed for 3×10 min in TBST-0.1, blocked with blotto-blocking buffer for at least 1 h and re-probed with the corresponding anti-total kinase antibodies (described below) all diluted (1:1000) in blotto-blocking buffer. […]
(In general: In western blotting, separated proteins are transferred to a membrane and probed.)

In experiment [5] the test system is JAK2. Kind of experiment: JAK2 phosphorylation western blot assay. The experiment is classed as cell-based, human. As to conditions: 10 microM, HEL or K562 cells (table does not say which). The protocol:
as §3, §4, §5

What is called IC50 is the point on the concentration scale where inhibition reaches its midpoint. As to `O=C1CCCC2=C1C(c1ccc(Cl)cc1)C1=C(N2)C(=O)c2ccccc2C1=O` (stereo not drawn) [Compound 1, 12-(4-chlorophenyl)-3,4-dihydrobenzo[b]acridine-1,6,11(2H,5H,12H)-trione], the IC50 is < 10000 nM in experiment [1] (Homo sapiens), < 5000 nM in experiment [2] (Homo sapiens) and < 3000 nM in experiment [3] (Homo sapiens).
Regarding `N#Cc1ccc(C2C3=C(CCCC3=O)NC3=C2C(=O)c2ccccc2C3=O)cc1` (stereo not drawn) [Compound 2, 4-(1,6,11-trioxo-1,2,3,4,5,6,11,12-octahydrobenzo[b]acridin-12-yl)benzonitrile], the 50% inhibitory concentration (IC50) in experiment [1] (Homo sapiens) was < 1000 nM; in experiment [2] (Homo sapiens) it was < 1000 nM; in experiment [3] (Homo sapiens) it was < 3000 nM.
As for `CC1(C)CC(=O)C2=C(C1)OC1=C(C(=O)c3ccccc3C1=O)C2c1ccc2c(c1)OCO2` (stereo not drawn) [Compound 16, 12-(benzo[d][1,3]dioxol-5-yl)-3,3-dimethyl-3,4-dihydro-1H-benzo[b]xanthene-1,6,11(2H,12H)-trione], the figures for the half-maximal inhibitory concentration (IC50) in experiment [1] (Homo sapiens), in experiment [2] (Homo sapiens) and in experiment [3] (Homo sapiens) were < 3000 nM, < 5000 nM and < 3000 nM, respectively.
In the case of `O=C1CCCC2=C1C(c1ccc3c(c1)OCO3)C1=C(N2)C(=O)c2ccccc2C1=O` (stereo not drawn) [Compound 18], the concentration for half-maximal inhibition (IC50) in experiment [1] was < 10000 nM. Moreover, the “Activity (inhibition of STAT5 phosphorylation)” value in experiment [4] is recorded as “+ (+represents an inhibition at 10 microM > 50%)”. Moreover, in experiment [5], the “Activity (inhibition of JAK2 phosphorylation)” value was “++ (++represents an inhibition at 10 microM > 50%)”.
As to `CC1(C)CC(=O)C2=C(C1)OC1=C(C(=O)c3ccccc3C1=O)C2c1ccco1` (stereo not drawn) [Compound 20, 12-(furan-2-yl)-3,3-dimethyl-3,4-dihydro-1H-benzo[b]xanthene-1,6,11(2H,12H)-trione], in experiment [4], the “Activity (inhibition of STAT5 phosphorylation)” value is recorded as “++ (++represents an inhibition at 10 microM > 50%)”. Besides, the IC50 in experiment [2] (Homo sapiens) and in experiment [3] (Homo sapiens) was < 1000 nM throughout. Moreover, the “Activity (inhibition of JAK2 phosphorylation)” value in experiment [5] was “+++ (+++represents an inhibition at 10 microM > 75%)”.
For `CC1(C)CC(=O)C2=C(C1)OC1=C(C(=O)c3ccccc3C1=O)C2c1ccoc1` (stereo not drawn) [Compound 21], in experiment [4], the “Activity (inhibition of STAT5 phosphorylation)” value was “++ (++represents an inhibition at 10 microM > 50%)”. In addition, the half-maximal inhibitory concentration (IC50) in experiment [2] was < 1000 nM; in experiment [3], < 3000 nM. The “Activity (inhibition of JAK2 phosphorylation)” value in experiment [5] was “+ (+represents an inhibition at 10 microM > 30%)”.
The matching figures for `O=C1CCCC2=C1C(c1ccccc1Cl)C1=C(N2)C(=O)c2ccccc2C1=O` (stereo not drawn) [Compound 22]: “+++ (+++represents an inhibition at 10 microM > 75%)”, < 5000 nM, < 3000 nM and “++ (++represents an inhibition at 10 microM > 50%)”.
`O=C1CCCC2=C1C(c1ccoc1)C1=C(N2)C(=O)c2ccccc2C1=O` (stereo not drawn) [Compound 24]: in experiment [4], the “Activity (inhibition of STAT5 phosphorylation)” value is reported as “+ (+represents an inhibition at 10 microM > 50%)”. The half-maximal inhibitory concentration (IC50) in experiment [2] is < 5000 nM; in experiment [3], < 3000 nM. The “Activity (inhibition of JAK2 phosphorylation)” value in experiment [5] is listed as “+++ (+++represents an inhibition at 10 microM > 75%)”.
As to `O=C1CCCC2=C1C(c1ccc(Br)cc1)C1=C(N2)C(=O)c2ccccc2C1=O` (stereo not drawn) [Compound 26, 12-(4-bromophenyl)-3,4-dihydrobenzo[b]acridine 1,6,11(2H,5H,12H)-trione], the IC50 is < 1000 nM in experiment [1] (Homo sapiens), < 5000 nM in experiment [2] (Homo sapiens) and < 10000 nM in experiment [3] (Homo sapiens). For the same compound, in experiment [4], the “Activity (inhibition of STAT5 phosphorylation)” value was “+ (+represents an inhibition at 10 microM > 50%)”.
For `O=C1CCCC2=C1C(c1cccc(Br)c1)C1=C(N2)C(=O)c2ccccc2C1=O` (stereo not drawn) [Compound 27], the IC50 is < 10000 nM in experiment [1], < 5000 nM in experiment [2] and < 3000 nM in experiment [3]. Moreover, the “Activity (inhibition of JAK2 phosphorylation)” value in experiment [5] is on record as “+ (+represents an inhibition at 10 microM > 30%)”.
